Assay results published in patent publication US20170327509A1, “TWO-PHOTON ABSORBING FLUOROPHORES AND METHOD FOR CELLULAR IMAGING USING THE SAME” (POSTECH ACADEMY-INDUSTRY FOUNDATION, priority 2014, published 2017).
Where two headings read alike, the source gives them in different places. Each block holds one compound with its values, some of them ahead of it.

Tests used:
[1] = Absorbance spectra / molar extinction coefficients at the maximum absorption wavelength; type: physicochemical; settings: water (containing 1% DMSO), acetonitrile, and dichloromethane; FIG. 33
Description: Specifically, to confirm the absorbing properties of two-photon absorbing fluorophores, the inventors measured absorbance spectra for Compounds 1 to 9 at the concentration of 10 μM in HEPES buffer (containing 1% DMSO, pH 7.4) and water (containing 1% DMSO), contained in quartz cells with a light path length of 1 cm, and the results are respectively shown in the left and right graphs of FIG. 2. Absorbance spectra for Compounds 1 to 9 at the concentration of 10 μM in ethanol and acetonitrile were measured, and the results are respectively shown in the left and right graphs of FIG. 3. Absorbance spectra for Compounds 1 to 9 at the concentration of 10 μM in dimethylformamide and dichloromethane were measured, and the results are respectively shown in the left and right graphs of FIG. 4. Absorbance spectra for Compounds 1 to 9 at the concentration of 10 μM in cyclohexane were measured, and the result is shown in FIG. 5. Absorbance spectra for Compounds 10 to 12 at the concentration of 10 μM in water (a, containing 1% DMSO), acetonitrile (b), and dichloromethane (c) were measured, and the results are shown in FIG. 31. The absorbance spectra were measured using a HP 8453 UV/Vis spectrophotometer. […]

[2] = Two-photon absorption cross-section by two-photon induced fluorescence method; type: physicochemical; settings: water (containing 1% DMSO); excitation 800 nm, 820 nm, 840 nm; FIG. 35
Excerpt: Specifically, to confirm the fluorescence properties of the two-photon absorbing fluorophores under two-photon excitation, the inventors measured fluorescence spectra by two-photon excitation using a titanium:sapphire oscillator (Ti:sapphire oscillator), which was pumped by a frequency-doubled neodimium:yttrium orthovanadate laser (Nd:YVO4 laser; Verdi, Coherent) with an output power of 5.0 W. Output pulse energy was 40 nJ, and repetition rate was 380 kHz.
In addition, two-photon absorption cross-section values of each of Compounds 1 and 5 to 7 in dichloromethane solution, acetonitrile solution, and water (containing 1% DMSO) were measured, and the results are shown in FIGS. 28 and 29. Two-photon absorption cross-section values of each of Compounds 10 to 12 in a dichloromethane solution, an acetonitrile solution, and water (containing 1% DMSO) were measured, and the results are shown in FIG. 35. As a comparative compound, rhodamine B generally used as a fluorescent probe was used (two-photon absorption cross-section values, GM=300 (740 nm), 470 (760 nm) and 540 (780 nm), measured in an ethanol solution). Two-photon absorption cross-section values were measured by a two-photon induced fluorescence method (Fischer, A. et al. Applied Optics 1995, 34, 1989), 1 GM refers to 10^−50 cm^4 s photon^−1 molecule^−1.

[3] = Fluorescence quantum yield (reference rhodamine B); type: physicochemical; settings: water (containing 1% DMSO); FIGS. 15 and 34
Description: Further, fluorescence quantum yields of Compounds 1 to 9 in dichloromethane, acetonitrile, and water (containing 1% DMSO) were measured, and the results are shown in FIG. 15. Fluorescence quantum yields of Compounds 10 to 12 in dichloromethane, acetonitrile, and water (containing 1% DMSO) were measured, and the results are shown in FIG. 34. As a reference compound, rhodamine B was used (fluorescence quantum yield, ΦF=0.6, measured in ethanol).

[4] = Fluorescence spectra / fluorescence intensities in solution; type: physicochemical; settings: 1 μM in water (containing 1% DMSO); excitation at the maximum absorption wavelength; FIG. 40
Description: 10. […] 11. […] 12. […] 32. All fluorescence spectra were measured at the […] (FIG. 14). The fluorescence spectra were measured using a Photon Technical International Fluorescence System.
13(a). […] 13 (b, left) and FIG. 13 (b, right). Referring to FIGS. 9 and 13, it can be confirmed that fluorescence intensities of the two-photon absorbing fluorophores (particularly, Compounds 2 to 8) of the present invention in HEPES buffer (containing 1% DMSO, pH 7.4) and water (containing 1% DMSO) are higher than those of the conventional acedan (Compound 1).
In addition, to compare the fluorescence intensities of the compounds in aqueous solution according to a structural change, fluorescence intensities of Compounds 1, 5, and 13 to 18 at the concentration of 1 μM in water (containing 1% DMSO) were compared, and the results are shown in FIG. 40. The fluorescence intensities were measured through excitation of each compound at the maximum absorption wavelength. […] It can be confirmed that, as the degrees of hydrogen bonding of water molecule to the nitrogen atom in Compounds 13 to 17 are reduced, the fluorescence intensities increase.

[5] = comparative compound, ethanol solution, cited from earlier work
[6] = reference compound; measured in ethanol; cited from earlier work

Structure (SMILES): CC(=O)c1ccc2cc(N3CCOCC3)ccc2c1 [Compound 8, 1-(6-morpholinonaphthalen-2-yl)ethanone]
melting point: 149 to 151 °C

Structure (SMILES): O=C1c2cccc3c(NC4CCC(O)CC4)ccc(c23)C(=O)N1CCO (centres unmarked) [Compound 10, 6-(4-hydroxycyclohexylamino)-2-(2-hydroxyethyl)-1H-benzo[de]isoquinoline-1,3(2H)-dione]
molar extinction coefficients [1]: higher than those of the conventional Compound 11 (Formula 11) and Compound 12 (Formula 12)
two-photon absorption cross-section value [2]: higher than those of the conventional Compounds 11 and 12
fluorescence quantum yield [3]: higher than those of the conventional Compounds 11 and 12

Structure (SMILES): CC(=O)c1ccc2cc(N3CCCC3)ccc2c1 [Compound 18]
fluorescence intensities [4]: increase of fluorescence intensity

Structure (SMILES): CCN(CC)c1ccc2c(-c3ccccc3C(=O)O)c3ccc(=[N+](CC)CC)cc-3oc2c1.[Cl-] [rhodamine B]
two-photon absorption cross-section value ([5]; 740 nm): 300 GM
two-photon absorption cross-section value ([5]; 760 nm): 470 GM
two-photon absorption cross-section value ([5]; 780 nm): 540 GM
fluorescence quantum yield, ΦF [6]: 0.6

Results, then the compound that gave them:

melting point: 118 to 120 °C
Structure (SMILES): CC(=O)c1ccc2cc(N3C4CCC3CC4)ccc2c1

melting point: 112 to 114 °C
Structure (SMILES): CC(=O)c1ccc2cc(NC(C)C)ccc2c1 [Compound 3, 1-(6-(isopropylamino)naphthalen-2-yl)ethanone]

melting point: 182 °C
Structure (SMILES): CNc1ccc2cc(C(C)=O)ccc2c1 [Compound 4, 1-(6-(methylamino)naphthalen-2-yl)ethanone]

melting point: 186 to 188 °C
Structure (SMILES): CC(=O)c1ccc2cc(NC3CCC(O)CC3)ccc2c1 (centres unmarked) [Compound 5, 1-(6-(4-hydroxycyclohexylamino)naphthalen-2-yl)ethanone]

melting point: 192 to 194 °C
Structure (SMILES): CC(=O)c1ccc2cc(N(C)C3CCC(O)CC3)ccc2c1 (centres unmarked) [Compound 9, 1-(6-((4-hydroxycyclohexyl)(methyl)amino)naphthalen-2-yl)ethanone]
